Source: PubChem BioAssay (NCI)
Several values for one entry are separate records, joined by “and”; a condition that tells them apart may be missing. Equal values may be shown once.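 Grown in 96-well plates, cells were treated for 48 hours with each compound at five concentrations. Insufficient inhibition: endpoint recorded as highest concentration tested. Here, GI50 denotes the concentration required for 50% inhibition of growth. The concentration for full growth arrest is given as TGI.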

Key:
Experiment in all cases: NCI tumour cell line growth inhibition, 48 h
786-0 renal = system: 786-0 renal
A498 renal = system: A498 renal
A549 NSCLC = system: A549 NSCLC
ACHN renal = system: ACHN renal
BT-549 breast = system: BT-549 breast
CAKI-1 renal = system: CAKI-1 renal
CCRF-CEM leukemia = system: CCRF-CEM leukemia
COLO 205 colon = system: COLO 205 colon
DLD-1 colon = system: DLD-1 colon
DMS 114 small cell lung = system: DMS 114 small cell lung
DU-145 prostate = system: DU-145 prostate
EKVX NSCLC = system: EKVX NSCLC
HCC-2998 colon = system: HCC-2998 colon
HCT-15 colon = system: HCT-15 colon
HL-60(TB) leukemia = system: HL-60(TB) leukemia
HOP-18 NSCLC = system: HOP-18 NSCLC
HOP-62 NSCLC = system: HOP-62 NSCLC
HOP-92 NSCLC = system: HOP-92 NSCLC
HS 578T breast = system: HS 578T breast
HT29 colon = system: HT29 colon
IGROV1 ovarian = system: IGROV1 ovarian
KM12 colon = system: KM12 colon
KM20L2 colon = system: KM20L2 colon
LOX IMVI melanoma = system: LOX IMVI melanoma
LXFL 529 NSCLC = system: LXFL 529 NSCLC
M14 melanoma = system: M14 melanoma
M19-MEL melanoma = system: M19-MEL melanoma
MALME-3M melanoma = system: MALME-3M melanoma
MCF7 breast = system: MCF7 breast
MDA-MB-231 breast = system: MDA-MB-231 breast
MDA-MB-435 = system: MDA-MB-435
MDA-N = system: MDA-N
NCI-H226 lung = system: NCI-H226 lung
NCI-H23 lung = system: NCI-H23 lung
NCI-H522 lung = system: NCI-H522 lung
NCI/ADR-RES ovarian = system: NCI/ADR-RES ovarian
OVCAR-3 ovarian = system: OVCAR-3 ovarian
OVCAR-5 ovarian = system: OVCAR-5 ovarian
OVCAR-8 ovarian = system: OVCAR-8 ovarian
P388 leukemia = system: P388 leukemia
P388/ADR leukemia = system: P388/ADR leukemia
PC-3 prostate = system: PC-3 prostate
RPMI-8226 leukemia = system: RPMI-8226 leukemia
RXF 393 renal = system: RXF 393 renal
SF-268 CNS = system: SF-268 CNS
SF-295 CNS = system: SF-295 CNS
SF-539 CNS = system: SF-539 CNS
SK-MEL-2 melanoma = system: SK-MEL-2 melanoma
SK-MEL-28 melanoma = system: SK-MEL-28 melanoma
SK-OV-3 ovarian = system: SK-OV-3 ovarian
SN12C renal = system: SN12C renal
SN12K1 renal = system: SN12K1 renal
SNB-75 CNS = system: SNB-75 CNS
SNB-78 CNS = system: SNB-78 CNS
SR leukemia = system: SR leukemia
SW-620 colon = system: SW-620 colon
T-47D breast = system: T-47D breast
TK-10 renal = system: TK-10 renal
U251 CNS = system: U251 CNS
UACC-257 melanoma = system: UACC-257 melanoma
UACC-62 melanoma = system: UACC-62 melanoma
UO-31 renal = system: UO-31 renal
XF 498 CNS = system: XF 498 CNS

Structure (SMILES): COC(=O)C12OCC34C(CC5C(C)=CC(=O)C(O)C5(C)C3C(O)C1O)OC(=O)C(OC(=O)CC(C)C)C24 (stereo not drawn)
- GI50 (786-0 renal): 22.3 nM
- TGI (786-0 renal): 107 nM and 207 nM
- GI50 (A498 renal): < 57.5 nM
- TGI (A498 renal): 6.27 nM and < 79.1 nM
- GI50 (A549 NSCLC): < 39.9 nM and 50 nM
- GI50 (ACHN renal): 19.3 nM
- TGI (ACHN renal): 300 nM and 174 nM
- TGI (BT-549 breast): 5.49 nM
- GI50 (CAKI-1 renal): 120 nM and 87.6 nM
- GI50 (CCRF-CEM leukemia): < 50.3 nM and 50 nM
- GI50 (COLO 205 colon): 425 nM and 50 nM
- GI50 (DLD-1 colon): 63.3 nM and 50 nM
- GI50 (DMS 114 small cell lung): 133 nM
- TGI (DU-145 prostate): 4.25 nM
- GI50 (EKVX NSCLC): 61.2 nM
- GI50 (HCC-2998 colon): < 28.1 nM
- GI50 (HCT-15 colon): 56.5 nM and 50 nM
- GI50 (HL-60(TB) leukemia): < 41.7 nM and 50 nM
- GI50 (HOP-18 NSCLC): 9.07 nM and 44.1 nM and 50 nM
- TGI (HOP-18 NSCLC): 46.3 nM and 274 nM and 219 nM
- GI50 (HOP-62 NSCLC): 43.9 nM and 50 nM
- GI50 (HOP-92 NSCLC): 44.2 nM and 50 nM
- TGI (HOP-92 NSCLC): 17.4 nM and 119 nM and 65.1 nM
- TGI (HS 578T breast): 0.948 nM
- GI50 (HT29 colon): 58.8 nM
- GI50 (IGROV1 ovarian): < 28.8 nM and 50 nM
- GI50 (KM12 colon): 51.1 nM and 50 nM
- GI50 (KM20L2 colon): 47.9 nM and 50 nM
- GI50 (LOX IMVI melanoma): < 33.6 nM and 50 nM
- GI50 (LXFL 529 NSCLC): 3.84 nM
- TGI (LXFL 529 NSCLC): 82.5 nM and 104 nM
- GI50 (M14 melanoma): 3.4 nM
- TGI (M14 melanoma): 12.9 nM and 68.9 nM
- GI50 (M19-MEL melanoma): < 37.7 nM
- GI50 (MALME-3M melanoma): < 35.6 nM
- GI50 (MCF7 breast): 0.602 nM
- TGI (MCF7 breast): 2.21 nM
- TGI (MDA-MB-231 breast): 24.7 nM
- TGI (MDA-MB-435): 6.97 nM
- TGI (MDA-N): 5.03 nM
- GI50 (NCI-H226 lung): < 34.5 nM
- GI50 (NCI-H23 lung): < 46 nM and 50 nM
- TGI (NCI-H522 lung): 1.18 nM
- GI50 (NCI/ADR-RES ovarian): 288 nM
- GI50 (OVCAR-3 ovarian): < 51.8 nM
- GI50 (OVCAR-5 ovarian): 82.5 nM and 58.6 nM
- GI50 (OVCAR-8 ovarian): < 39.1 nM and 50 nM
- GI50 (P388 leukemia): 50 nM
- GI50 (P388/ADR leukemia): 65.7 nM
- TGI (PC-3 prostate): 12.1 nM
- GI50 (RPMI-8226 leukemia): < 28.9 nM
- GI50 (RXF 393 renal): 42.7 nM and 50 nM
- GI50 (SF-268 CNS): 67.1 nM and 50 nM
- GI50 (SF-295 CNS): 77 nM
- GI50 (SF-539 CNS): < 34 nM
- GI50 (SK-MEL-2 melanoma): 56.2 nM and 316 nM
- GI50 (SK-MEL-28 melanoma): < 35.2 nM and 50 nM
- GI50 (SK-OV-3 ovarian): 300 nM and 50 nM
- GI50 (SN12C renal): 82.9 nM and 50 nM
- GI50 (SN12K1 renal): 0.382 nM
- TGI (SN12K1 renal): 2.72 nM
- GI50 (SNB-75 CNS): 82.5 nM and 50 nM
- GI50 (SNB-78 CNS): 74.8 nM and 50 nM
- TGI (SR leukemia): 50.6 nM
- GI50 (SW-620 colon): 42 nM and 50 nM
- TGI (T-47D breast): 6 nM
- GI50 (TK-10 renal): 16.6 nM
- TGI (TK-10 renal): 160 nM and 477 nM
- GI50 (U251 CNS): < 34.2 nM
- GI50 (UACC-257 melanoma): 78.8 nM and 50 nM
- GI50 (UACC-62 melanoma): 47.8 nM and 50 nM
- GI50 (UO-31 renal): 256 nM and 63.7 nM
- GI50 (XF 498 CNS): 41 nM and 50 nM
